These results are taken from patent publication US11090290B2, “Clonidine and/or clonidine derivatives for use in the prevention of skin injury resulting from radiotherapy” (MONOPAR THERAPEUTICS INC., priority 2015, dated 2021).

One assay has as its system radiation skin injury. Conditions: Journal of Clinical Oncology, Vol. 29, No 20, 2011; even worsened skin adverse reactions; cited from earlier work.
Assay [1] concerns skin injury following radiotherapy in patients with head and neck cancer. Conditions: mucoadhesive buccal tablet 50 μg once daily, from 1 to 3 days before radiotherapy until its end, up to 8 weeks; 50 to 70 Gray plus platinum-based chemotherapy; placebo group 38.7%. How it is done: These patients received, within 15 weeks after curative surgery, a cumulative radiation dose of radiation ranging from 50 to 70 Gray in oral cavity, based on a daily dosing between 1.8 and 2.2 Gy, combined with platinum-based chemotherapy, based on a weekly or tri-weekly cycle. Clonidine was administered in the form of a mucoadhesive tablet that was applied into the mouth, on the upper gum, for about 30 seconds, after which it remained in place for several hours. The treatment with clonidine hydrochloride started from 1 to 3 days before radiotherapy until the end of radiotherapy, for up to 8 weeks. Patients were evaluated twice a week during the radiotherapy period, then one month after stop of radiotherapy.

As for palifermin, the “effect on radiation skin injury compared to a placebo” value in the assay with radiation skin injury is “not to improve radiation skin injury compared to a placebo”. For `Cl.Clc1cccc(Cl)c1NC1=NCCN1` [clonidine hydrochloride], the “patients showing skin injury after treatment” value in assay [1] is listed as 25.5%.
